Results as given in article PMC7853623, “Dose- and time-dependent tolerability and efficacy of organo-osmium complex FY26 and its tissue pharmacokinetics in hepatocarcinoma-bearing mice” (Metallomics: Integrated Biometal Science, 2020).

Assays:
[1] = test system: A2780 ovarian cancer cells; assay: In vitro growth inhibition assay (SRB), A2780; type: cell-based; details: A2780, 24 h exposure, 72 h recovery
Description: Dulbecco's modified Eagle's medium (DMEM) cell culture media, penicillin/streptomycin, foetal bovine serum, L-glutamine, phosphate-buffered saline (PBS) solution, and trypsin/EDTA were all purchased from Thermo Fisher (Loughborough, UK). DMEM was supplemented with 10% foetal bovine serum, 1% penicillin/streptomycin, and 2 mM L-glutamine. Cancer cell lines (A2780 and A549) were purchased from the European Collection of Cell Cultures (Salisbury, UK). Cell cultures were grown in T-75 or T-175 culture flasks as adherent monolayers. The cells were passaged two to three times per week whenever confluence reached 80–90%, using 0.25% trypsin/EDTA. Cell cultures were stored in an incubator at 37°C with a 5% CO2 humidified atmosphere.
Five thousand A2780 or A549 cells were seeded per well in 96-well plates. The cells were pre-incubated in drug-free media at 37°C for 48 h before adding a range of concentrations (0.01–100 µM) of the complexes to be tested. Typically, the complex was dissolved in dimethyl sulfoxide (DMSO) at 2 mM concentration, and then diluted with cell culture medium to give a 100 µM stock solution with 5% (v/v) DMSO. […] Absorbance measurements of the solubilized dye (Thermo Scientific Multiskan FC with SkanIt software 4.1 for Windows using a 470 nm filter) allowed the determination of viable treated cells compared to untreated controls. […]

[2] = Tumour and liver osmium uptake after a single ip dose (Experiment 5, ICP-MS); type: in vivo, C57Bl/6 mice
Description: Experiment 5 determined FY26⋅Cl uptake in mouse tumour and liver. Hepa1–6-bearing mice were randomly assigned to either treatment or control groups. They received a single ip injection of 5, 10, or 20 mg/kg of FY26⋅Cl or 0.1 M PBS (vehicle) at ZT6 (Table 1). The mice from pre-set subgroups were culled at 6, 24, or 48 h after injection. The subcutaneous tumours in both flanks, as well as liver, spleen, one kidney, an ileum, and a colon segment and brain were sampled and stored at −80°C.
For Experiments 1 and 2, FY26⋅PF6 was diluted in the vehicle, composed of 1% Tween 80 (Sigma-Aldrich, Gillingham, UK), 5% DMSO (Corning, New York, USA) and 94% of 0.9% saline (Prep room, Life Sciences, University of Warwick) under laminar flow. FY26⋅PF6 concentration was confirmed with ICP-MS. For Experiments 3–5, using FY26⋅Cl, a stock solution of 50 mg/ml FY26⋅Cl was prepared in 0.9% saline on the day of injection and diluted as required; the vehicle consisted of 0.9% saline.
Liver tissue was homogenized by manual mechanical grinding (pestle and mortar) while frozen under liquid N2. Once thawed, ∼90–110 mg of homogenized tissue was pipetted into microwave reaction vessels (10 ml), and tetramethylammonium hydroxide (TMAH, 25% m/v, 2 ml) was added. Tumour tissue was not homogenized and instead digested as whole tissue. It was weighed directly into microwave vials and TMAH was added (100 µl per 5 mg tissue, minimum of 500 µl added). The samples were digested via microwave irradiation (CEM SP-D Discover® microwave reactor, ≥300 W, ≥450 psi) at 200°C for 10 min. Digested samples were diluted in one part DDIW, and then centrifuged at 9000 rpm for 10 min at 20°C. The final analytical samples were prepared by a further 1 in 12.5 dilution in DDIW (total dilution of 1 in 25), ensuring a final TMAH concentration of 1% and total dissolved solids <0.1% […]. TMAH digestion was selected to circumvent the formation of volatile Os species with nitric acid.
Analyses of digested tissue samples were carried out on an Agilent Technologies ICP-MS 7900 spectrometer in a basic aqueous matrix of TMAH (1%, m/v). The osmium concentrations were determined via isotopic detection of ^189Os in gas (He) and no-gas modes, and samples were referenced internally to ^100Ru (10 ppb). A concentration calibration curve was produced by serial dilutions of an osmium standard (1000 ppm) in 1% TMAH: 0, 0.1, 0.25, 0.5, 1, 2.5, 5, 10, 25, 50, 100, 250, 500, and 1000 ppb.

SMILES: CN(C)c1ccc(N=Nc2ccccn2)cc1.Cc1ccc(C(C)C)cc1.[Cl-].[I-].[Os+2] [FY26⋅Cl]
- difference in anticancer (antiproliferative) activity between X = Cl and X = PF6 [1]: lack of any statistically significant difference
- liver [Os] levels at 6 h relative to 20 or 10 mg/kg ([2]; 5 mg/kg single ip, 6 h): nearly halved
- liver [Os] levels over time ([2]; 20 mg/kg single ip): remained almost constant until 48 h
- tumour [Os] levels over time ([2]; 20 mg/kg single ip, 6, 24 and 48 h): remained almost constant over time
- liver [Os] concentrations over time ([2]; 10 and 5 mg/kg single ip): decreased sharply at 24 h and remained stable until 48 h
- tumour [Os] levels over time ([2]; 10 and 5 mg/kg single ip, tumours of both flanks): decreased at 24 h and slightly increased at 48 h
- tumour uptake as compared to liver (less) ([2]; 6 h post-treatment, single ip dose at ZT6, both tumours): ~10 fold
